Experimental data from US20150105252A1, “SUBSTITUTED PYRAZOLES AS HERBICIDES” (E I DU PONT DE NEMOURS AND COMPANY, priority 2013, published 2015).

What was measured:
[1] = tested on: soybean; test: Test C preemergence; format: in vivo, Glycine max; conditions: preemergence; for Plant response rating, Soybean: 125 g ai/ha, scale 0 to 100, 0 = no effect, 100 = complete control
Summary of the method: (§1)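 Seeds sown in loam–sand blend and treated preemergence with test chemicals in non-phytotoxic solvent with surfactant; postemergence plants in peat-based medium, treated at 2–18 cm (1- to 4-leaf stage). Greenhouse 13 to 15 days, then visual rating versus controls, 0 (no effect) to 100 (complete control).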

[2] = tested on: sedge, umbrella; test: Test B flood; format: in vivo, Cyperus difformis; conditions: 250 g ai/ha, visual rating on 0 to 100 scale (0 no effect, 100 complete control), 13 to 15 days
Summary of the method: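 Flooded-pot test: compound dosed into 3 cm of standing water above soil when plants had two leaves. Visual control ratings (0–100) versus untreated plants after 13–15 d.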

[3] = tested on: johnsongrass; test: Test C postemergence; format: in vivo, Sorghum halepense; conditions: for Plant response rating (scale of 0 to 100 where 0 is no effect and 100 is complete control), Johnsongrass: Postemergence, 31 g ai/ha, visually evaluated after 13 to 15 days; for Johnsongrass plant response rating / Plant response rating, Johnsongrass: postemergence; for Johnsongrass plant response rating: 62 g ai/ha, scale 0 to 100
Summary of the method: as §1

[4] = tested on: velvetleaf; test: Test C preemergence; format: in vivo, Abutilon theophrasti; conditions: preemergence; for Plant response rating, Velvetleaf: 125 g ai/ha, scale 0 to 100, 0 = no effect, 100 = complete control
Summary of the method: as §1

[5] = tested on: velvetleaf; test: Test C postemergence; format: in vivo, Abutilon theophrasti; conditions: postemergence; for Plant response rating, Velvetleaf: 250 g ai/ha, scale 0 to 100 (0 no effect, 100 complete control); for Velvetleaf plant response rating: scale 0 to 100
Summary of the method: as §1

[6] = tested on: oat, wild; test: Test C postemergence; format: in vivo, Avena fatua; conditions: for Plant response rating (scale of 0 to 100 where 0 is no effect and 100 is complete control), Oat, Wild: Postemergence, 31 g ai/ha, visually evaluated after 13 to 15 days; for Oat, Wild plant response rating / Plant response rating, Oat, Wild: postemergence; for Oat, Wild plant response rating: 62 g ai/ha, scale 0 to 100
Summary of the method: as §1

[7] = tested on: velvetleaf; test: Test A postemergence; format: in vivo, Abutilon theophrasti; conditions: Postemergence
Summary of the method: (§2)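 Visual injury ratings, 0 = no effect to 100 = complete control, taken about 10 days after treatment against untreated controls. Test chemicals, in a non-phytotoxic surfactant-containing solvent, were sprayed onto soil preemergence or onto one- to two-leaf plants (2–10 cm) postemergence, in loam–sand soil under greenhouse conditions.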

[8] = tested on: chickweed; test: Test C postemergence; format: in vivo, Stellaria media; conditions: for Plant response rating (scale of 0 to 100 where 0 is no effect and 100 is complete control), Chickweed: Postemergence, 31 g ai/ha, visually evaluated after 13 to 15 days; for Chickweed plant response rating / Plant response rating, Chickweed: postemergence; for Chickweed plant response rating: 62 g ai/ha, scale 0 to 100
Summary of the method: as §1

[9] = tested on: barnyardgrass; test: Test C preemergence; format: in vivo, Echinochloa crus-galli; conditions: preemergence; for Plant response rating, Barnyardgrass: 125 g ai/ha, scale 0 to 100, 0 = no effect, 100 = complete control
Summary of the method: as §1

[10] = tested on: wheat; test: Test A postemergence; format: in vivo, Triticum aestivum; conditions: Postemergence
Summary of the method: as §2

[11] = tested on: morningglory; test: Test C preemergence; format: in vivo, Ipomoea coccinea; conditions: preemergence; for Plant response rating, Morningglory: 125 g ai/ha, scale 0 to 100, 0 = no effect, 100 = complete control
Summary of the method: as §1

[12] = tested on: morningglory; test: Test C postemergence; format: in vivo, Ipomoea coccinea; conditions: for Plant response rating (scale of 0 to 100 where 0 is no effect and 100 is complete control), Morningglory: Postemergence, 31 g ai/ha, visually evaluated after 13 to 15 days; for Morningglory plant response rating / Plant response rating, Morningglory: postemergence; for Morningglory plant response rating: 62 g ai/ha, scale 0 to 100
Summary of the method: as §1

[13] = tested on: morningglory; test: Test A postemergence; format: in vivo, Ipomoea spp.; conditions: Postemergence
Summary of the method: as §2

[14] = 31 g ai/ha, visual rating, scale 0 to 100 (0 no effect, 100 complete control), 13 to 15 days
[15] = 62 g ai/ha, scale 0 to 100 (0 no effect, 100 complete control), 13 to 15 days
[16] = 250 g ai/ha, scale 0 to 100, 0 is no effect, 100 is complete control
[17] = 250 g ai/ha, scale 0 to 100 (0 no effect, 100 complete control)
[18] = 125 g ai/ha, scale 0 to 100, 0 no effect, 100 complete control
[19] = 125 g ai/ha, 0 to 100 scale, 0 no effect, 100 complete control
[20] = 500 g ai/ha, 0 to 100 scale (0 no effect, 100 complete control)

## CCCc1cc(C(=O)NC(C)C)nn1Cc1cc(C(F)(F)F)nn1C [Compound 201]
[1]; [14]
  Soybean plant response rating: 70
[1]; [15]
  Soybean plant response rating: 85
[1]; 13 to 15 days
  Plant response rating, Soybean: 95
[1]; [16]
  Soybean plant response rating: 98
[2]
  Plant response rating, Sedge, Umbrella: 95
[3]
  Plant response rating (scale of 0 to 100 where 0 is no effect and 100 is complete control), Johnsongrass: 5
  Johnsongrass plant response rating: 5
[3]; [17]
  Plant response rating, Johnsongrass: 85
[3]; [18]
  Plant response rating, Johnsongrass: 30
[4]; [14]
  Velvetleaf plant response rating: 90
[4]; [15]
  Velvetleaf plant response rating: 100
[4]; 13 to 15 days
  Plant response rating, Velvetleaf: 100
[4]; [16]
  Velvetleaf plant response rating: 100
[5]
  Plant response rating, Velvetleaf: 80
  Velvetleaf plant response rating: 60
[6]
  Plant response rating (scale of 0 to 100 where 0 is no effect and 100 is complete control), Oat, Wild: 5
  Oat, Wild plant response rating: 10
[6]; [17]
  Plant response rating, Oat, Wild: 40
[6]; [18]
  Plant response rating, Oat, Wild: 25
[7]; [19]
  Velvetleaf plant response rating: 70
[7]; [20]
  Velvetleaf plant response rating: 100
[8]
  Plant response rating (scale of 0 to 100 where 0 is no effect and 100 is complete control), Chickweed: 75
  Chickweed plant response rating: 80
[8]; [17]
  Plant response rating, Chickweed: 85
[8]; [18]
  Plant response rating, Chickweed: 85
[9]; [14]
  Barnyardgrass plant response rating: 98
[9]; [15]
  Barnyardgrass plant response rating: 100
[9]; 13 to 15 days
  Plant response rating, Barnyardgrass: 100
[9]; [16]
  Barnyardgrass plant response rating: 100
[10]; [19]
  Wheat plant response rating: 90
[10]; [20]
  Wheat plant response rating: 100
[11]; [14]
  Morningglory plant response rating: 85
[11]; [15]
  Morningglory plant response rating: 100
[11]; 13 to 15 days
  Plant response rating, Morningglory: 100
[11]; [16]
  Morningglory plant response rating: 100
[12]
  Plant response rating (scale of 0 to 100 where 0 is no effect and 100 is complete control), Morningglory: 80
  Morningglory plant response rating: 95
[12]; [17]
  Plant response rating, Morningglory: 98
[12]; [18]
  Plant response rating, Morningglory: 85
[13]; [19]
  Morningglory plant response rating: 90
[13]; [20]
  Morningglory plant response rating: 100

## CCCc1cc(C(=O)NC2CC2)nn1Cc1cc(C(F)(F)F)nn1C [Compound 202]
[1]; [14]
  Soybean plant response rating: 65
[1]; [15]
  Soybean plant response rating: 70
[1]; 13 to 15 days
  Plant response rating, Soybean: 85
[1]; [16]
  Soybean plant response rating: 98
[2]
  Plant response rating, Sedge, Umbrella: 80
[3]
  Plant response rating (scale of 0 to 100 where 0 is no effect and 100 is complete control), Johnsongrass: 0
  Johnsongrass plant response rating: 5
[3]; [17]
  Plant response rating, Johnsongrass: 25
[3]; [18]
  Plant response rating, Johnsongrass: 5
[4]; [14]
  Velvetleaf plant response rating: 60
[4]; [15]
  Velvetleaf plant response rating: 100
[4]; 13 to 15 days
  Plant response rating, Velvetleaf: 100
[4]; [16]
  Velvetleaf plant response rating: 100
[5]
  Plant response rating, Velvetleaf: 65
  Velvetleaf plant response rating: 40
[6]
  Plant response rating (scale of 0 to 100 where 0 is no effect and 100 is complete control), Oat, Wild: 5
  Oat, Wild plant response rating: 5
[6]; [17]
  Plant response rating, Oat, Wild: 30
[6]; [18]
  Plant response rating, Oat, Wild: 10
[7]; [19]
  Velvetleaf plant response rating: 70
[7]; [20]
  Velvetleaf plant response rating: 90
[8]
  Plant response rating (scale of 0 to 100 where 0 is no effect and 100 is complete control), Chickweed: 75
  Chickweed plant response rating: 80
[8]; [17]
  Plant response rating, Chickweed: 85
[8]; [18]
  Plant response rating, Chickweed: 80
[9]; [14]
  Barnyardgrass plant response rating: 95
[9]; [15]
  Barnyardgrass plant response rating: 100
[9]; 13 to 15 days
  Plant response rating, Barnyardgrass: 100
[9]; [16]
  Barnyardgrass plant response rating: 100
[10]; [19]
  Wheat plant response rating: 60
[10]; [20]
  Wheat plant response rating: 80
[11]; [14]
  Morningglory plant response rating: 90
[11]; [15]
  Morningglory plant response rating: 100
[11]; 13 to 15 days
  Plant response rating, Morningglory: 100
[11]; [16]
  Morningglory plant response rating: 100
[12]
  Plant response rating (scale of 0 to 100 where 0 is no effect and 100 is complete control), Morningglory: 35
  Morningglory plant response rating: 40
[12]; [17]
  Plant response rating, Morningglory: 98
[12]; [18]
  Plant response rating, Morningglory: 90
[13]; [19]
  Morningglory plant response rating: 70
[13]; [20]
  Morningglory plant response rating: 90
